Like-named read-outs stand apart in the source and are kept apart here.
Assays:
[1] = tested on: HIV-1 strain GB8 in JM cells; test: Established HIV-1 (GB8) infection of JM cells, post-infection addition: syncytia and p24 antigen; type: cell-based, HIV-1 (human T cell line JM); details: for activity at 100 µg/mL: Human immunodeficiency virus 1, 75 h; for relative order of antiviral potency: established HIV-1 infections
Procedure: The stilbene disulfonic acids blocked HIV-1 replication when the compounds were added within 2 hours of virus adsorption, i.e., prior to virus penetration, and the cells were cultured in the presence of the inhibitors. These compounds were next examined for antiviral activity at later stages of the infection process. At a MOI of 0.01 infectious units/cell (GB8 virus), viral glycoproteins appear at the surface of JM cells by 24 hours post-infection (p.i.) and initiate fusion with neighboring CD4^+ cells; the syncytial numbers show a good correlation with the production of cell-free virus (Tyms et al., 1990).
In post-treatent experiments, cells were first infected with HIV-1 strain RF or GB8 for 2 hours at 37° C. at a MOI of 0.01 and allowed to grow for either 24 or 43 hours before replating into fresh growth medium containing 100 μg/ml of DIDS, H2 DIDS or SITS. Syncytia were then scored at 52 and 68 hours p.i. in triplicate, and p24 viral core antigen in culture fluids were assayed at 75 hours p.i. as described above.
Protocol: JM cells were infected with HIV at a multiplicity of infection of 0.00025 syncytial forming units per cell. Virus adsorption was at room temperature for one hour. The cells were then washed three times and distributed in wells of a tissue culture plate at a concentration of 2×10^5 cells/well. Either DIDS, SITS or H2 DIDS (all at 100 μg/ml) were added to wells at 0, 24, 43 and 51 hours post-infection. As virus controls some wells had no drug added. Syncytia were scored at 43, 52 and 68 hours post-infection. The cell-free supernatant fluids of the virus control wells were harvested after 33, 43, 51, 68 and 75 hours post-infection. All other wells were harvested 75 hours post-infection. The supernatant fluid was then assayed for p24 viral core antigen.

HSV 2 = test: Plaque reduction assay, HSV 2; type: cell-based; details: for activity at 0.1 µg/mL / activity at 1 µg/mL / activity at 10 µg/mL / activity at 100 µg/mL: read-out: Mean % VC (plaques)
Procedure: Protocol: Plaque reduction assay. Treatment after adsorption during incubation.

[2] = 100 μg/ml, time of addition 0 hours
[3] = 100 μg/ml, time of addition 0 h p.i.
[4] = 100 μg/ml, time of addition 24h
[5] = 100 μg/ml, time of addition 24 hours
[6] = 100 μg/ml, time of addition 24 h p.i.
[7] = 100 μg/ml, time of addition 43h
[8] = 100 μg/ml, time of addition 43 hours
[9] = 100 μg/ml, time of addition 43 h p.i.
[10] = 100 μg/ml, time of addition 51h
[11] = 100 μg/ml, time of addition 51 hours
[12] = read-out: P24 Antigen (75 hours post-infection), %, 100 μg/ml, time of addition 0 hours
[13] = read-out: P24 Antigen (75 hours post-infection), %, 100 μg/ml, time of addition 24 hours
[14] = read-out: P24 Antigen (75 hours post-infection), %, 100 μg/ml, time of addition 43 hours
[15] = read-out: P24 Antigen (75 hours post-infection), %, 100 μg/ml, time of addition 51 hours
[16] = 100 μg/ml, time of addition 24 h p.i., read-out: P24 Antigen 75 h, % (drug-free medium 100%)
[17] = 100 μg/ml, time of addition 43 h p.i., read-out: P24 Antigen 75 h, % (drug-free medium 100%)

## O=S(=O)(O)c1cc(N=C=S)ccc1C=Cc1ccc(N=C=S)cc1S(=O)(=O)O [DIDS, 4,4'-diisothiocyanatostilbene-2,2'-disulfonic acid]
[1]; 100 μg/ml, added 43 hours p.i.
  syncytia by 68 hours p.i.: completely absent
[1]; 100 μg/ml, addition 24 hours p.i., scored at 52 and 68 hours p.i.
  fusion relative to virus control: completely suppressed fusion
[1]; 100 μg/ml, time of addition 0h
  Mean Syncytia 68 hrs: 0
[1]; [2]
  P24 Antigen (75 hours post-infection): Neg
[1]; [3]
  P24 Antigen 75 h: Neg
  Syncytia at 52h: 0
  Syncytia at 68h: 0
[1]; [4]
  Mean Syncytia 68 hrs: 0
[1]; [5]
  P24 Antigen (75 hours post-infection): Neg
[1]; [6]
  P24 Antigen 75 h: Neg
  Syncytia at 52h: 0
  Syncytia at 68h: 0
[1]; [7]
  Mean Syncytia 51 hrs: 19
  Mean Syncytia 68 hrs: 0
[1]; [8]
  P24 Antigen (75 hours post-infection): 2793 pg/mL
[1]; [9]
  P24 Antigen 75 h: 2.8 ng/mL
  Syncytia at 52h: 19
  Syncytia at 68h: 0
[1]; [10]
  Mean Syncytia 68 hrs: 25
[1]; [11]
  P24 Antigen (75 hours post-infection): 49050 pg/mL
[1]; [12]
  activity at 100 µg/mL: > 1%
[1]; [13]
  activity at 100 µg/mL: < 1%
[1]; [14]
  activity at 100 µg/mL: 2.4%
[1]; [15]
  activity at 100 µg/mL: 42%
[1]
  relative order of antiviral potency: DIDS>H2 DIDS>>SITS
HSV 2; 0.1 μg/ml, first count
  Plaque counts: 37
HSV 2; 0.1 μg/ml
  activity at 0.1 µg/mL: 68%
HSV 2; 0.1 μg/ml, second count
  Plaque counts: 40
HSV 2; 1 μg/ml, first count
  Plaque counts: 31
HSV 2; 1 μg/ml
  activity at 1 µg/mL: 61%
HSV 2; 1 μg/ml, second count
  Plaque counts: 33
HSV 2; 1 μg/ml, third count
  Plaque counts: 39
HSV 2; 10 μg/ml, first count
  Plaque counts: 25
HSV 2; 10 μg/ml
  activity at 10 µg/mL: 44%
HSV 2; 10 μg/ml, second count
  Plaque counts: 25
HSV 2; 10 μg/ml, third count
  Plaque counts: 25
HSV 2; 100 μg/ml, first count
  Plaque counts: 0
HSV 2; 100 μg/ml
  activity at 100 µg/mL: 0%
HSV 2; 100 μg/ml, second count
  Plaque counts: 0
HSV 2; 100 μg/ml, third count
  Plaque counts: 0

## O=S(=O)(O)c1cc(N=C=S)ccc1CCc1ccc(N=C=S)cc1S(=O)(=O)O [H2 DIDS, 4,4'-diisothiocyanatodihydrostilbene-2,2'-disulfonic acid]
[1]; 100 μg/ml, time of addition 0h
  Mean Syncytia 68 hrs: 0
[1]; [3]
  P24 Antigen 75 h: Neg
  Syncytia at 52h: 0
  Syncytia at 68h: 0
[1]; [4]
  Mean Syncytia 68 hrs: 0
[1]; [5]
  P24 Antigen (75 hours post-infection): 2363 pg/mL
[1]; [6]
  P24 Antigen 75 h: 2.4 ng/mL
  Syncytia at 52h: 0
  Syncytia at 68h: 0
[1]; [7]
  Mean Syncytia 51 hrs: 19
  Mean Syncytia 68 hrs: 3
[1]; [8]
  P24 Antigen (75 hours post-infection): 16412 pg/mL
[1]; [9]
  P24 Antigen 75 h: 16.4 ng/mL
  Syncytia at 52h: 19
  Syncytia at 68h: 3
[1]; [10]
  Mean Syncytia 68 hrs: 15
[1]; [11]
  P24 Antigen (75 hours post-infection): 42020 pg/mL
[1]; 100 μg/ml, time of addition 0 hours, read-out: P24 Antigen (75 hours post-infection), %
  activity at 100 µg/mL: < 1%
[1]; 100 μg/ml, time of addition 0 h p.i., read-out: P24 Antigen 75 h, % (drug-free medium 100%)
  activity at 100 µg/mL: 0%
[1]; 100 μg/ml, time of addition 24 hours, read-out: P24 Antigen (75 hours post-infection), %
  activity at 100 µg/mL: 2%
[1]; [16]
  activity at 100 µg/mL: 2%
[1]; 100 μg/ml, time of addition 43 hours, read-out: P24 Antigen (75 hours post-infection), %
  activity at 100 µg/mL: 14%
[1]; [17]
  activity at 100 µg/mL: 14%
[1]; 100 μg/ml, time of addition 51 hours, read-out: P24 Antigen (75 hours post-infection), %
  activity at 100 µg/mL: 36%
HSV 2; 0.1 μg/ml, first count
  Plaque counts: 35
HSV 2; 0.1 μg/ml, second count
  Plaque counts: 35
HSV 2; 1 μg/ml, first count
  Plaque counts: 23
HSV 2; 1 μg/ml, second count
  Plaque counts: 31
HSV 2; 1 μg/ml, third count
  Plaque counts: 24
HSV 2; 10 μg/ml, first count
  Plaque counts: 26
HSV 2; 10 μg/ml, second count
  Plaque counts: 19
HSV 2; 10 μg/ml, third count
  Plaque counts: 21
HSV 2; 100 μg/ml, first count
  Plaque counts: 0
HSV 2; 100 μg/ml, second count
  Plaque counts: 0
HSV 2; 100 μg/ml, third count
  Plaque counts: 0
HSV 2
  activity at 0.1 µg/mL: 63%
  activity at 1 µg/mL: 46%
  activity at 10 µg/mL: 43%
  activity at 100 µg/mL: 0%

## CC(=O)Nc1ccc(C=Cc2ccc(N=C=S)cc2S(=O)(=O)O)c(S(=O)(=O)O)c1 [SITS, 4-acetamido-4'-isothiocyanatostilbene-2,2'-disulfonic acid]
[1]; 100 μg/ml, time of addition 0h
  Mean Syncytia 68 hrs: 27
[1]; [2]
  P24 Antigen (75 hours post-infection): 8680 pg/mL
[1]; [3]
  P24 Antigen 75 h: 6.7 ng/mL
  Syncytia at 52h: 4
  Syncytia at 68h: 27
[1]; [4]
  Mean Syncytia 68 hrs: 77
[1]; [5]
  P24 Antigen (75 hours post-infection): 21669 pg/mL
[1]; [6]
  P24 Antigen 75 h: 21.7 ng/mL
  Syncytia at 52h: 35
  Syncytia at 68h: 77
[1]; [7]
  Mean Syncytia 51 hrs: 59
  Mean Syncytia 68 hrs: As VC
[1]; [8]
  P24 Antigen (75 hours post-infection): 49245 pg/mL
[1]; [9]
  P24 Antigen 75 h: 49.3 ng/mL
  Syncytia at 52h: 59
  Syncytia at 68h: 80
[1]; [10]
  Mean Syncytia 68 hrs: As VC
[1]; [11]
  P24 Antigen (75 hours post-infection): 53830 pg/mL
[1]; [16]
  activity at 100 µg/mL: 18.6%
[1]; [17]
  activity at 100 µg/mL: 42.3%
[1]; read-out: P24 Antigen 75 h, % (drug-free medium 100%), 100 μg/ml, time of addition 0 h p.i.
  activity at 100 µg/mL: 7.4%
[1]; [12]
  activity at 100 µg/mL: 7.4%
[1]; [13]
  activity at 100 µg/mL: 18.6%
[1]; [14]
  activity at 100 µg/mL: 42.3%
[1]; [15]
  activity at 100 µg/mL: 47.2%
[1]
  relative order of antiviral potency: DIDS>H2 DIDS>>SITS
[1]; established infection
  anti-syncytial activity relative to virus control: no anti-syncytial activity
  p24 antigen (in words): slightly reduced
HSV 2; 0.1 μg/ml, first count
  Plaque counts: 34
HSV 2; 0.1 μg/ml, second count
  Plaque counts: 26
HSV 2; 1 μg/ml, first count
  Plaque counts: 28
HSV 2; 1 μg/ml, second count
  Plaque counts: 25
HSV 2; 1 μg/ml, third count
  Plaque counts: 23
HSV 2; 10 μg/ml, first count
  Plaque counts: 25
HSV 2; 10 μg/ml, second count
  Plaque counts: 25
HSV 2; 10 μg/ml, third count
  Plaque counts: 24
HSV 2; 100 μg/ml, first count
  Plaque counts: 16
HSV 2; 100 μg/ml, second count
  Plaque counts: 13
HSV 2
  activity at 0.1 µg/mL: > 100%
  activity at 1 µg/mL: 100%
  activity at 10 µg/mL: 100%
  activity at 100 µg/mL: 63%
